{
  "source": "patent US20220354894A1",
  "about": "“Cell Composition Comprising Radiolabled Mesenchymal Stem Cells, Use Thereof and Method for Preparing Radiolabeled Mesenchymal Stem Cells” (Boehringer Ingelheim Veterinary Medicine Belgium, priority 2019, published 2022)",
  "assay": "Whole body scintigraphy biodistribution after IV, IM, SC injection in dogs (Example 4)",
  "format": "in vivo",
  "conditions": "dog",
  "experimental": "Three different studies were performed. In a first study, the biodistribution of intravenously administrated equine peripheral blood-derived MSCs (ePB-MSCs) was evaluated in four dogs. In the second study, the biodistribution of intramuscularly and subcutaneously administrated ePB-MSCs was evaluated in four dogs. Finally, in a third study, the biodistribution of a higher dose of ePB-MSCs following intravenous administration was evaluated in three dogs.\nFour healthy adult research dogs were included in the two first studies; three dogs from the second study were re-used for the third study. All dogs were purpose bred adult beagles (16-23 months). Two males and two females were included in the first two studies and one male and two female dogs were included in the third study. The dogs were housed in groups of 2, in a pen of 4 by 4 by 2 m (L×W×H) so permanent visual, olfactorial, tactile and auditive contact between dogs was possible. Toys were provided for the dogs to play with in their pen. Cleaning of the dog pens was performed daily. The floor was covered with wood shavings to improve lying comfort for the dogs. The animals were let out in dog runs to play and run for minimal 1 hour a day. After the study this minimal time was increased depending on the need of the dogs.\nIn the first study, each dog received two intravenous injections; first the dogs were injected with the control product: freshly eluted ^99mTc dissolved in DMEM and at least 7 days later they received a second injection with ^99mTc-labeled ePB-MSCs. For the second study, 4 injections were administered to each dog. The dogs first received an IM injection with the control product, next a SC with the control product, then an IM injection with the ^99mTc-labeled ePB-MSCs and finally a SC administration of the ^99mTc-labeled ePB-MSCs. At least 7 days separated each injection. In the third study, the three dogs received a single IV injection with ^99mTc-labeled ePB-MSCs.\nThe dogs were put under general anesthesia and positioned in sternal recumbency on the gamma camera before each injection. To obtain general anesthesia, the dogs were first sedated with dexmedetomidine (12-25 μg/kg IM), next induction was obtained with propofol (dosage on effect) and anesthesia was maintained with isoflurane 1.2-1.4% (on effect) in 100% oxygen following endotracheal intubation. The intravenous injection was administered through a 22-gauge catheter in one of the cephalic veins, the intramuscular injection was performed in the left quadriceps muscle and the subcutaneous injection was administered at the back of the neck.\nA two-headed gamma camera, equipped with low energy high resolution collimators (GCA 7200 A; Toshiba) was used for the scintigraphic investigation. The whole body scan was obtained with the detectors of the SPECT scanner moving simultaneous dorsally and ventrally from head to tail of the dog over 10 minutes. All dogs were kept under general anesthesia during all the acquisitions. For all 3 studies, data collection of the first hour consisted of 6 successive acquisitions of each 10 minutes. The start of the first acquisition was simultaneous with injection of the radioactive compound and the dog remained in the same position for all 6 scans. Next, in the first study, total body scans (each lasting 10 minutes) were performed at 2 h, 4 h, 8 h, 12 h, 24 h and 36 h after placebo control and labeled ePB-MSCs administration using propofol (dosage on effect). For the second and the third study, 6 successive 10 minutes' total body scans performed during the first hour after injection were followed by total body scans (each lasting 10 minutes) at 6 h and 24 h after each injection. For all studies, a syringe with a known amount of radioactivity to calculate % injected dose (ID), was simultaneous scanned with the dog. Care was taken for the dog's re-positioning on the table, to avoid too much spatial deviation on the scans following the first hour scans. […]",
  "data": [
    {"compound": "[O]=[99Tc](=[O])(=[O])[O-]", "note": "[control product, ^99mTc Pertechnetate]", "values": [
      {"measurement": "percentage of injected dose at injection site", "setting": "IM, 10 min", "value": 29.49, "unit": "%"},
      {"measurement": "percentage of injected dose in bladder", "setting": "IM, 10 min", "value": 0.13, "unit": "%"},
      {"measurement": "percentage of injected dose in heart", "setting": "IM, 10 min", "value": 0.45, "unit": "%"},
      {"measurement": "percentage of injected dose in left salivary gland", "setting": "IM, 10 min", "value": 0.02, "unit": "%"},
      {"measurement": "percentage of injected dose in lung", "setting": "IM, 10 min", "value": 1.06, "unit": "%"},
      {"measurement": "percentage of injected dose in right salivary gland", "setting": "IM, 10 min", "value": 0.01, "unit": "%"},
      {"measurement": "percentage of injected dose in stomach", "setting": "IM, 10 min", "value": 1.62, "unit": "%"},
      {"measurement": "percentage of injected dose in thyroid", "setting": "IM, 10 min", "value": 0.05, "unit": "%"},
      {"measurement": "percentage of injected dose at injection site", "setting": "IM, 60 min", "value": 3.63, "unit": "%"},
      {"measurement": "percentage of injected dose in bladder", "setting": "IM, 60 min", "value": 3.51, "unit": "%"},
      {"measurement": "percentage of injected dose in heart", "setting": "IM, 60 min", "value": 2.46, "unit": "%"},
      {"measurement": "percentage of injected dose in left salivary gland", "setting": "IM, 60 min", "value": 1.03, "unit": "%"},
      {"measurement": "percentage of injected dose in lung", "setting": "IM, 60 min", "value": 6.92, "unit": "%"},
      {"measurement": "percentage of injected dose in right salivary gland", "setting": "IM, 60 min", "value": 0.99, "unit": "%"},
      {"measurement": "percentage of injected dose in stomach", "setting": "IM, 60 min", "value": 17.36, "unit": "%"},
      {"measurement": "percentage of injected dose in thyroid", "setting": "IM, 60 min", "value": 1.10, "unit": "%"},
      {"measurement": "percentage of injected dose at injection site", "setting": "IM, 6 hours", "value": 0.19, "unit": "%"},
      {"measurement": "percentage of injected dose in bladder", "setting": "IM, 6 hours", "value": 4.77, "unit": "%"},
      {"measurement": "percentage of injected dose in heart", "setting": "IM, 6 hours", "value": 1.45, "unit": "%"},
      {"measurement": "percentage of injected dose in left salivary gland", "setting": "IM, 6 hours", "value": 1.84, "unit": "%"},
      {"measurement": "percentage of injected dose in lung", "setting": "IM, 6 hours", "value": 4.41, "unit": "%"},
      {"measurement": "percentage of injected dose in right salivary gland", "setting": "IM, 6 hours", "value": 1.60, "unit": "%"},
      {"measurement": "percentage of injected dose in stomach", "setting": "IM, 6 hours", "value": 17.25, "unit": "%"},
      {"measurement": "percentage of injected dose in thyroid", "setting": "IM, 6 hours", "value": 1.15, "unit": "%"},
      {"measurement": "percentage of injected dose at injection site", "setting": "IM, 24 hours", "value": 0.12, "unit": "%"},
      {"measurement": "percentage of injected dose in bladder", "setting": "IM, 24 hours", "value": 5.08, "unit": "%"},
      {"measurement": "percentage of injected dose in heart", "setting": "IM, 24 hours", "value": 0.69, "unit": "%"},
      {"measurement": "percentage of injected dose in left salivary gland", "setting": "IM, 24 hours", "value": 2.47, "unit": "%"},
      {"measurement": "percentage of injected dose in lung", "setting": "IM, 24 hours", "value": 2.14, "unit": "%"},
      {"measurement": "percentage of injected dose in right salivary gland", "setting": "IM, 24 hours", "value": 2.09, "unit": "%"},
      {"measurement": "percentage of injected dose in stomach", "setting": "IM, 24 hours", "value": 9.36, "unit": "%"},
      {"measurement": "percentage of injected dose in thyroid", "setting": "IM, 24 hours", "value": 0.57, "unit": "%"},
      {"measurement": "percentage of injected dose in bladder", "setting": "IV, 10 min", "value": 0.63, "unit": "%"},
      {"measurement": "percentage of injected dose in heart", "setting": "IV, 10 min", "value": 2.79, "unit": "%"},
      {"measurement": "percentage of injected dose in left salivary gland", "setting": "IV, 10 min", "value": 0.33, "unit": "%"},
      {"measurement": "percentage of injected dose in liver", "setting": "IV, 10 min", "value": 2.93, "unit": "%"},
      {"measurement": "percentage of injected dose in lung", "setting": "IV, 10 min", "value": 3.73, "unit": "%"},
      {"measurement": "percentage of injected dose in right salivary gland", "setting": "IV, 10 min", "value": 0.33, "unit": "%"},
      {"measurement": "percentage of injected dose in stomach", "setting": "IV, 10 min", "value": 4.84, "unit": "%"},
      {"measurement": "percentage of injected dose in thyroid", "setting": "IV, 10 min", "value": 0.41, "unit": "%"},
      {"measurement": "percentage of injected dose in bladder", "setting": "IV, 60 min", "value": 1.93, "unit": "%"},
      {"measurement": "percentage of injected dose in heart", "setting": "IV, 60 min", "value": 1.61, "unit": "%"},
      {"measurement": "percentage of injected dose in left salivary gland", "setting": "IV, 60 min", "value": 0.77, "unit": "%"},
      {"measurement": "percentage of injected dose in liver", "setting": "IV, 60 min", "value": 2.07, "unit": "%"},
      {"measurement": "percentage of injected dose in lung", "setting": "IV, 60 min", "value": 2.62, "unit": "%"},
      {"measurement": "percentage of injected dose in right salivary gland", "setting": "IV, 60 min", "value": 0.72, "unit": "%"},
      {"measurement": "percentage of injected dose in stomach", "setting": "IV, 60 min", "value": 9.77, "unit": "%"},
      {"measurement": "percentage of injected dose in thyroid", "setting": "IV, 60 min", "value": 0.61, "unit": "%"},
      {"measurement": "percentage of injected dose in bladder", "setting": "IV, 6 hours", "value": 2.42, "unit": "%"},
      {"measurement": "percentage of injected dose in heart", "setting": "IV, 6 hours", "value": 1.45, "unit": "%"},
      {"measurement": "percentage of injected dose in left salivary gland", "setting": "IV, 6 hours", "value": 1.31, "unit": "%"},
      {"measurement": "percentage of injected dose in liver", "setting": "IV, 6 hours", "value": 1.73, "unit": "%"},
      {"measurement": "percentage of injected dose in lung", "setting": "IV, 6 hours", "value": 1.97, "unit": "%"}
    ]}
  ]
}
